# Experimental data: PMC3653934, “Identification of Adiponectin Receptor Agonist Utilizing a Fluorescence Polarization Based High Throughput Assay” (PLoS ONE, 2013)
# Key:
# MDA-MB-231 cells = experiment: Cell viability assay (CellTiter-Blue) in MDA-MB-231 cells; assay type: cell-based; conditions: Homo sapiens, MDA-MB-231; 72 h, 20 µM to 1.2 nM; read-out: IC50 (µM) MDA-MB-231 cells, cell viability
# Protocol: (§1) All cell lines were obtained from the American Type Culture Collection (ATCC). MCF-7 and MDA-MB-231 cells were maintained in DMEM containing 10% fetal bovine serum and supplied with 1% penicillin/streptomycin. All cells were maintained in a 5% CO2 atmosphere at 37°C.
# (§2) The effects of the lead compounds on cell proliferation were tested in MCF-7 and MDA-MB-231 cells. Cells were grown to 80% confluence, harvested and aliquoted into 384-well plates in a total volume of 45 µl per well. The outer wells were inoculated with sterile water to minimize evaporation from the sample wells. Cells were allowed to attach overnight and 5 µl culture media containing either vehicles or drug were added. Cell proliferation was evaluated using CellTilter-Blue reagent (Promega, China) according to manufacturer’s instructions after 72-h incubation. Fluorescence was measured with an excitation at 530 nm and emission at 590 nm. After background subtraction, cell viability values were normalized to vehicle controls and expressed as percentage of the mean of the relative vehicle controls.
# (§3) To further confirm the agonistic activity of hit compounds, MDA-MB-231 and MCF-7 cells were treated with different concentrations of g-Ad or drug (20 µM to 1.2 nM) for 72 hours and cell viability was measured. Thus, four compounds (arctiin, (-)-arctigenin, matairesinol and gramine) that show agonistic activity against adiponectin receptor 1 and four compounds (deoxyschizandrin, taxifoliol, syringing and parthenolide) that show agonistic activity against adiponectin receptor 2 were identified.
# MCF-7 cells = experiment: Cell viability assay (CellTiter-Blue) in MCF-7 cells; assay type: cell-based; conditions: Homo sapiens, MCF7; 72 h, 20 µM to 1.2 nM; read-out: IC50 (µM) MCF-7 cells, cell viability
# Protocol: as §1, §2, §3
Structure (SMILES),IC50 (MDA-MB-231 cells),IC50 (MCF-7 cells)
"COc1ccc(C[C@H]2COC(=O)[C@@H]2Cc2ccc(O[C@@H]3O[C@H](CO)[C@@H](O)[C@H](O)[C@H]3O)c(OC)c2)cc1OC [Compound 1, Arctiin]",3.2 ± 0.3 µM,> 10 µM
"COc1cc(C[C@H]2COC(=O)[C@@H]2Cc2ccc(O)c(OC)c2)ccc1O [Compound 3, Matairesinol]",1.8 ± 0.6 µM,> 10 µM
"COc1cc2c(c(OC)c1OC)-c1c(cc(OC)c(OC)c1OC)C[C@H](C)[C@H](C)C2 [Compound 4, Deoxyschizandrin]",> 10 µM,5.5 ± 0.6 µM
"C=C1C(=O)O[C@H]2[C@H]1CC/C(C)=C/CC[C@@]1(C)O[C@@H]21 [Compound 7, Parthenolide]",> 10 µM,2.5 ± 0.4 µM
"CN(C)Cc1c[nH]c2ccccc12 [Compound 9, Gramine]",9.6 ± 0.9 µM,0.1 ± 0.1 µM
